Here are results for 18 molecules from ChEMBL document CHEMBL4229405, “Design, synthesis and biological evaluation of piperazino-enaminones as novel suppressants of pro-Inflammatory cytokines” (Bioorg Med Chem, 2018).

Molecules are shown by their SMILES. The source made the active and inactive calls. The rule behind the calls is not given here.

Series [1] deals with J774.2. In words: Antiinflammatory activity against mouse J774.2 cells assessed as inhibition of LPS-induced TNFalpha release at 1 mM after 24 hrs by ELISA relative to control. It counts as functional. The following applies: J774.2, 24 h.
Series [2] has as its system J774.2. In words: Antiinflammatory activity against mouse J774.2 cells assessed as inhibition of LPS-induced IL-6 release at 0.5 mM after 24 hrs by ELISA relative to control. The following applies: for inhibition at 500 µM: J774.2, 24 h. Type of series: functional. (An ELISA detects its analyte on a solid surface through an enzyme-linked reagent.)
A short description of series [3]: Lipophilicity, log P of the compound. It counts as physicochemical. The following applies: octanol/water.
For series [4], the system named is J774.2. Put plainly: Antiinflammatory activity against mouse J774.2 cells assessed as inhibition of LPS-induced IL-6 release at 1 mM after 24 hrs by ELISA relative to control. It counts as functional. The following applies: for inhibition at 1000 µM: J774.2, 24 h.
The subject of series [5] is J774.2. In words: Antiinflammatory activity against mouse J774.2 cells assessed as inhibition of LPS-induced IL-6 release at 0.25 mM after 24 hrs by ELISA relative to control. The following applies: J774.2, 24 h. It counts as functional.
The subject of series [6] is J774.2. Put plainly: Antiinflammatory activity against mouse J774.2 cells assessed as inhibition of LPS-induced TNFalpha release at 0.25 mM after 24 hrs by ELISA relative to control. The settings on record: J774.2, 24 h. It counts as functional.
Series [7] concerns J774.2. Put plainly: Antiinflammatory activity against mouse J774.2 cells assessed as inhibition of LPS-induced TNFalpha release after 24 hrs by ELISA. It counts as functional, cell-based.
Series [8] concerns J774.2. In words: Antiinflammatory activity against mouse J774.2 cells assessed as inhibition of LPS-induced TNFalpha release at > 0.5 mM after 24 hrs by ELISA. It counts as functional, cell-based.
Series [9] has as its system J774.2. In words: Antiinflammatory activity against mouse J774.2 cells assessed as inhibition of LPS-induced TNFalpha release at 0.25 to 1 mM after 24 hrs by ELISA. It counts as functional, cell-based.

A word on the inhibition: it is the drop in the measured response relative to a control, in per cent. As for `C[C@@H]1C[C@H]2[C@@H]3CCC4=CC(=O)C=C[C@]4(C)[C@@]3(F)[C@@H](O)C[C@]2(C)[C@@]1(O)C(=O)CO` [DEXAMETHASONE], the inhibition at 1000 µM in series [1] was 62%. Besides, the inhibition at 500 µM in series [2] came out at 40%.
Usually logP stands for the decadic logarithm of the partition coefficient of the neutral form, usually between octanol and water. Lower therefore signals a more hydrophilic compound. The molecule `CCOC(=O)C1C(=O)C=C(Nc2ccc(N3CCN(CC)CC3)cc2)CC1c1ccccc1` (stereo unspecified) registered a lipophilicity (logP) in series [3] of 4.77. Moreover, the inhibition entry in series [4] and in [2] was “inactive” throughout. Further, the inhibition at 250 µM in [5] and in series [6] was 62% in each case.
As to `COC(=O)C1C(=O)C=C(Nc2ccc(N3CCN(C)CC3)cc2)CC1c1ccccc1` (stereo unspecified), in series [3], the logP is 4.02. Besides, in series [1], the inhibition at 1000 µM lay within 80 to 82%. Besides, the values for the inhibition at 250 µM in series [5] and in [6] were 9 to 70% and 30%, respectively. In addition, in series [2], the inhibition at 500 µM stood at 98%.
For the molecule `COC(=O)C1C(=O)C=C(Nc2cccc(N3CCN(C)CC3)c2)CC1c1ccccc1` (stereo unspecified), the log partition coefficient (logP) in series [3] stood at 3.99. In addition, the inhibition at 250 µM in series [5] was determined as 72%; in series [6] it was 53%. The inhibition result in [7] is “Dose-dependent effect”.
Consider `CCOC(=O)C1C(=O)C=C(Nc2ccc(N3CCN(CC)CC3)cc2)CC1C` (stereo unspecified), for which the logP in [3] was 3.45. Also, the inhibition at 250 µM in [5] worked out at 25%. In series [8], the inhibition entry was “Active”.
Turning to `CCOC(=O)C1C(=O)C=C(Nc2ccc(N3CCN(C)CC3)cc2)CC1c1ccccc1` (stereo unspecified), the logP in series [3] was found to be 4.39. The inhibition at 1000 µM in [1] stood at 100%. Also, in series [4], the inhibition entry is “inactive”. The inhibition at 250 µM in series [5] is 64 to 98%; in series [6], 52%. Also, the inhibition at 500 µM in [2] is 100%.
On to `CCN1CCN(c2ccc(NC3=CC(=O)C(C(=O)OC)C(c4ccccc4)C3)cc2)CC1` (stereo unspecified), for which the logP in series [3] is 4.39. Besides, the inhibition at 250 µM in [5] was determined as 86%; in series [6], 65%. Also, the inhibition entry in series [7] is “Dose-dependent effect”.
`CCN1CCN(c2ccc(NC3=CC(=O)C(C(=O)OC)C(C)C3)cc2)CC1` (stereo unspecified) yielded a logP in [3] of 3.07.
As for `COC(=O)C1C(=O)C=C(Nc2ccc(N3CCN(C)CC3)cc2)CC1C` (stereo unspecified), the logP in series [3] turned out to be 2.7. The inhibition at 250 µM in series [5] turned out to be 53%. The inhibition entry in series [9] was “inactive”.
On to `COC(=O)C1C(=O)C=C(Nc2ccccc2N2CCN(C)CC2)CC1C` (stereo unspecified), for which the logP in series [3] turned out to be 2.65. The inhibition at 1000 µM turned out to be 47% in series [1] and 68% in series [4].
For `CCOC(=O)C1C(=O)C=C(Nc2cccc(N3CCN(C)CC3)c2)CC1c1ccccc1` (stereo unspecified), in series [3], the logP worked out at 4.37. Moreover, in [5], the inhibition at 250 µM is 35%. For the same molecule, in [8], the inhibition result was “Active”.
As to `CCOC(=O)C1C(=O)C=C(Nc2ccccc2N2CCN(C)CC2)CC1C` (stereo unspecified), the logP in series [3] was found to be 3.02. Besides, the figures for the inhibition at 1000 µM in [1] and in series [4] were 53% and 72%, respectively.
As to `CCOC(=O)C1C(=O)C=C(Nc2ccccc2N2CCN(C)CC2)CC1c1ccccc1` (stereo unspecified), in [3], the logP came out at 4.35.
On to `CCOC(=O)C1C(=O)C=C(Nc2ccc(Cl)cc2)CC1C` (stereo unspecified), for which the inhibition at 1000 µM turned out to be 70% in [1] and 96% in series [4]. Also, the inhibition at 250 µM in series [5] was 20%.
The molecule `COC(=O)C1C(=O)C=C(Nc2ccccc2N2CCN(C)CC2)CC1c1ccccc1` (stereo unspecified) returned a logP in series [3] of 3.97.
In [3], `CCOC(=O)C1C(=O)C=C(Nc2ccc(N3CCN(C)CC3)cc2)CC1C` (stereo unspecified) gave a logP of 3.07.
On the same count and under the same terms, the same measure for `CCOC(=O)C1C(=O)C=C(Nc2cccc(N3CCN(C)CC3)c2)CC1C` (stereo unspecified): 3.05.
`COC(=O)C1C(=O)C=C(Nc2cccc(N3CCN(C)CC3)c2)CC1C` (stereo unspecified): the logP in series [3] was 2.67. The inhibition at 250 µM in series [6] is 40%.
